Laboratory results taken from PMC3869726, “Inhibition of Human Neutrophil Elastase by Pentacyclic Triterpenes” (PLoS ONE, 2013).
Values joined by “and” are separate entries in the source; they are usually repeats but may differ in a detail not shown here. Identical values can stand only once.

How the values were obtained:
[1] = target: T1, Human neutrophil elastase (HNE) (Homo sapiens, UniProt P08246); test: HNE activity inhibitory bioassay (MeO-Suc-Ala-Ala-Pro-Val-pNA hydrolysis, absorbance 405 nm); format: biochemical; details: for IC50: in vitro HNE assay, read-out: IC50, HNE inhibition; for Anti-HNE activity, inhibitory ratio: n = 3; for inhibition at 100 µM: tetracyclic triterpenoids (Table S3)
T1 construct: HNE (EC 3.4.21.37) from human leukocytes was purchased; purchased Innovative Research Company (Novi, Michigan); host or cells: human leukocytes (natural source)
T1 sequence (P08246 30-247 limits assumed): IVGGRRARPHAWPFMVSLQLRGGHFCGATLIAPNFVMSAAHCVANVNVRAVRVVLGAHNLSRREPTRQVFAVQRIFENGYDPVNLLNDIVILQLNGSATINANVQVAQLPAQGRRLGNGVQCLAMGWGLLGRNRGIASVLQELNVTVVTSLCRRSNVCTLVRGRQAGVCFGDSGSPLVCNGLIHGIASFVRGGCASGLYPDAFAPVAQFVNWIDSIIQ

[2] = target: T1, Human neutrophil elastase (HNE); test: Enzyme inhibition kinetic analysis of HNE (Michaelis-Menten / Lineweaver-Burk); format: biochemical
[3] = system: acute smoke-induced airway inflammation in mice; test: Acute smoke-induced lung (airway) inflammation model in mice, BALF analysis
HNE = target: T2, HNE (Homo sapiens, UniProt P08246); test: 1H NMR spin-lattice relaxation rates (Rns, Rse) of ligand with and without HNE; format: binding; details: pH 7.0, 298 K;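 also: ligand in d6-DMSO with 50 mM phosphate buffer, selective and nonselective spin-lattice rates from an inversion-recovery pulse sequence, computed by initial-rate approximation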
T2 construct: HNE (EC 3.4.21.37) from human leukocytes was purchased; purchased Innovative Research Company (Novi, Michigan); host or cells: human leukocytes (natural source)
T2 sequence (P08246 30-247 limits assumed): T1 sequence (P08246 30-247 limits assumed)

[4] = smoke exposure, 50 mg/kg intraperitoneal

COC(=O)[C@]12CCC(C)(C)C[C@H]1[C@H]1C(=O)C=C3[C@@]4(C)C=C(C#N)C(=O)C(C)(C)[C@@H]4CC[C@@]3(C)[C@]1(C)CC2 [CDDO-Me, C-28 methyl ester of 2-cyano-3,12-dioxoolen-1,9-dien-28-oic acid, reference compound]
IC50 [1]: 16.6 µM

C[C@H]1[C@H](C)CC[C@]2(C(=O)O)CC[C@]3(C)C(=CC[C@@H]4[C@@]5(C)CC[C@H](O)C(C)(C)[C@@H]5CC[C@]43C)[C@H]12 [Compound 1, ursolic acid]
mode of HNE inhibition with respect to substrate ([2]; 0, 3, 10 µM ursolic acid, six substrate concentrations 0.2-2 mM, 37°C): competitively inhibits HNE | apparent maximum velocity Vmax′, trend ([2]; as a function of ursolic acid concentration 0-10 µM, P>0.05): invariable | apparent Michaelis-Menten constant Kapp, trend ([2]; ursolic acid increasing from 0 µM to 10 µM, P<0.05): increased | Anti-HNE activity, inhibitory ratio ([1]; 1 µM compound): 12.22±6.64% | Anti-HNE activity, inhibitory ratio ([1]; 1 µM compound, listed as Ursolic acid (1)): 12.2% | Anti-HNE activity, inhibitory ratio ([1]; 3 µM compound): 36.47±5.75 % | Anti-HNE activity, inhibitory ratio ([1]; 10 µM compound): 80.84±3.14 % | Anti-HNE activity, inhibitory ratio ([1]; 30 µM compound): 82.98±5.67 % | Anti-HNE activity, inhibitory ratio ([1]; 30 µM compound, listed as ursolic acid): more than 80% | Anti-HNE activity, inhibitory ratio ([1]; 100 µM compound): 88.47±2.96 % | IC50 [1]: 5.51 µM and ~5.51 µM | inhibition of the smoke-induced increase in BALF NE ([3]; 50 mg/kg intraperitoneal): 54% | inhibition of the smoke-induced increase in BALF TNF-α ([3]; 50 mg/kg intraperitoneal): 38% | dose with significant inhibition of BALF TNF-α ([3]; doses 10, 30, 100 mg/kg, dose-dependent): ≥ 10 mg/kg | dose with significant inhibition of BALF NE ([3]; doses 10, 30, 100 mg/kg, dose-dependent, P<0.05): 30 mg/kg | levels of BALF NE and TNF-α in vivo ([3]; smoke exposure): significantly suppressed | number of neutrophils in BALF [3, 4]: significantly reduced | number of total leukocytes in BALF [3, 4]: significantly reduced | Rns/Rse, proton H3 (HNE; free ligand 1 mM): 0.93 | Rns/Rse, proton H12 (HNE; free ligand 1 mM): 0.88 | Rns/Rse, proton H18 (HNE; free ligand 1 mM): 0.92 | Rns/Rse, proton H3 (HNE; ligand 1 mM + HNE 5 µM): 0.73 | Rns/Rse, proton H12 (HNE; ligand 1 mM + HNE 5 µM): 0.62 | Rns/Rse, proton H18 (HNE; ligand 1 mM + HNE 5 µM): 0.81

CC1(C)[C@@H](O)CC[C@]2(C)[C@H]3C(=O)C=C4[C@@H]5C[C@@](C)(C(=O)O)CC[C@]5(C)CC[C@@]4(C)[C@]3(C)CC[C@@H]12 [Compound 3, glycyrrhetinic acid]
Anti-HNE activity, inhibitory ratio ([1]; 1 µM compound): 0.06±6.40% | Anti-HNE activity, inhibitory ratio ([1]; 3 µM compound): 1.05±5.24% | Anti-HNE activity, inhibitory ratio ([1]; 10 µM compound): 21.09±4.96% | Anti-HNE activity, inhibitory ratio ([1]; 30 µM compound): 45.84±0.41 % | Anti-HNE activity, inhibitory ratio ([1]; 100 µM compound): 75.20±2.89 % | IC50 [1]: ~36.9 µM | Rns/Rse, proton H3 (HNE; free ligand 1 mM): 0.96 | Rns/Rse, proton H5 (HNE; free ligand 1 mM): 0.92 | Rns/Rse, proton H12 (HNE; free ligand 1 mM): 0.94 | Rns/Rse, proton H18 (HNE; free ligand 1 mM): 2.29 | Rns/Rse, proton H3 (HNE; ligand 1 mM + HNE 5 µM): 0.74 | Rns/Rse, proton H5 (HNE; ligand 1 mM + HNE 5 µM): 0.84 | Rns/Rse, proton H12 (HNE; ligand 1 mM + HNE 5 µM): 0.85 | Rns/Rse, proton H18 (HNE; ligand 1 mM + HNE 5 µM): 0.81

CC1(C)[C@@H](O[C@H]2O[C@H](C(=O)O)[C@@H](O)[C@H](O)[C@H]2O[C@@H]2O[C@H](C(=O)O)[C@@H](O)[C@H](O)[C@H]2O)CC[C@]2(C)[C@H]3C(=O)C=C4[C@@H]5C[C@@](C)(C(=O)O)CC[C@]5(C)CC[C@@]4(C)[C@]3(C)CC[C@@H]12 [Compound 4, glycyrrhizin]
Anti-HNE activity, inhibitory ratio ([1]; 1 µM compound): 10.25±1.73% | Anti-HNE activity, inhibitory ratio ([1]; 3 µM compound): 19.00±6.99 % | Anti-HNE activity, inhibitory ratio ([1]; 10 µM compound): 28.21±4.84 % | Anti-HNE activity, inhibitory ratio ([1]; 30 µM compound): 40.89±1.28 % | Anti-HNE activity, inhibitory ratio ([1]; 100 µM compound): 78.66±1.99 % | IC50 [1]: ~27.6 µM | Rns/Rse, proton H9 (HNE; free ligand 1 mM): 0.64 | Rns/Rse, proton H12 (HNE; free ligand 1 mM): 0.87 | Rns/Rse, proton glc-H1’ (HNE; free ligand 1 mM): 0.54 | Rns/Rse, proton glc-H1” (HNE; free ligand 1 mM): 0.49 | Rns/Rse, proton H9 (HNE; ligand 1 mM + HNE 5 µM): 0.64 | Rns/Rse, proton H12 (HNE; ligand 1 mM + HNE 5 µM): 0.74 | Rns/Rse, proton glc-H1’ (HNE; ligand 1 mM + HNE 5 µM): 0.31 | Rns/Rse, proton glc-H1” (HNE; ligand 1 mM + HNE 5 µM): 0.47

C=C(C)[C@@H]1CC[C@]2(C(=O)O)CC[C@]3(C)[C@H](CC[C@@H]4[C@@]5(C)CC[C@H](O)C(C)(C)[C@@H]5CC[C@]43C)[C@@H]12 [Compound 5, betulinic acid]
Anti-HNE activity, inhibitory ratio ([1]; 1 µM compound): 8.25±1.88% | Anti-HNE activity, inhibitory ratio ([1]; 3 µM compound): 46.57±2.47 % | Anti-HNE activity, inhibitory ratio ([1]; 10 µM compound): 74.20±2.32 % | Anti-HNE activity, inhibitory ratio ([1]; 30 µM compound): 80.58±2.21 % | Anti-HNE activity, inhibitory ratio ([1]; 30 µM compound, listed as betulinic acid): more than 80% | Anti-HNE activity, inhibitory ratio ([1]; 100 µM compound): 82.41±1.37 % | IC50 [1]: ~6.83 µM | Rns/Rse, proton H13 (HNE; free ligand 1 mM): 1.51 | Rns/Rse, proton H19 (HNE; free ligand 1 mM): 0.82 | Rns/Rse, proton H24 (HNE; free ligand 1 mM): 1.02 | Rns/Rse, proton H29a (HNE; free ligand 1 mM): 0.96 | Rns/Rse, proton H29b (HNE; free ligand 1 mM): 0.97 | Rns/Rse, proton H13 (HNE; ligand 1 mM + HNE 5 µM): 0.97 | Rns/Rse, proton H19 (HNE; ligand 1 mM + HNE 5 µM): 0.79 | Rns/Rse, proton H24 (HNE; ligand 1 mM + HNE 5 µM): 0.95 | Rns/Rse, proton H29a (HNE; ligand 1 mM + HNE 5 µM): 0.95 | Rns/Rse, proton H29b (HNE; ligand 1 mM + HNE 5 µM): 0.96

C=C(C)[C@@H]1CC[C@]2(C)CC[C@]3(C)[C@H](CC[C@@H]4[C@@]5(C)CC[C@H](O)C(C)(C)[C@@H]5CC[C@]43C)[C@@H]12 [Compound 6, lupeol]
Anti-HNE activity, inhibitory ratio ([1]; 1 µM compound): 9.38±6.80% | Anti-HNE activity, inhibitory ratio ([1]; 3 µM compound): 19.01±10.00 % | Anti-HNE activity, inhibitory ratio ([1]; 10 µM compound): 51.92±15.22 % | Anti-HNE activity, inhibitory ratio ([1]; 30 µM compound): 88.00±6.26 % | Anti-HNE activity, inhibitory ratio ([1]; 30 µM compound, listed as lupeol): more than 80% | Anti-HNE activity, inhibitory ratio ([1]; 100 µM compound): 93.56±1.19 % | IC50 [1]: ~8.2 µM | Rns/Rse, proton H13 (HNE; free ligand 1 mM): 1.67 | Rns/Rse, proton H19 (HNE; free ligand 1 mM): 1.03 | Rns/Rse, proton H24 (HNE; free ligand 1 mM): 1.03 | Rns/Rse, proton H29a (HNE; free ligand 1 mM): 1.23 | Rns/Rse, proton H29b (HNE; free ligand 1 mM): 1.24 | Rns/Rse, proton H13 (HNE; ligand 1 mM + HNE 5 µM): 1.27 | Rns/Rse, proton H19 (HNE; ligand 1 mM + HNE 5 µM): 1.00 | Rns/Rse, proton H24 (HNE; ligand 1 mM + HNE 5 µM): 1.03 | Rns/Rse, proton H29a (HNE; ligand 1 mM + HNE 5 µM): 1.23 | Rns/Rse, proton H29b (HNE; ligand 1 mM + HNE 5 µM): 1.22

CC(C)(O)[C@@H]1CC[C@](C)([C@H]2[C@@H](O)C[C@@]3(C)[C@@H]4C[C@H](O[C@@H]5O[C@H](CO)[C@@H](O)[C@H](O)[C@H]5O)[C@H]5C(C)(C)[C@@H](O[C@@H]6OC[C@@H](O)[C@H](O)[C@H]6O)CC[C@@]56C[C@@]46CC[C@]23C)O1 [Compound 7, astragaloside IV]
inhibition at 100 µM [1]: 3.27% | levels of BALF NE and TNF-α in vivo ([3]; smoke exposure): did not observe the inhibitory effects | airway inflammation ([3]; smoke exposure, intraperitoneal, negative control): did not inhibit

CC(C)=CCCC(C)(OC1OC(CO)C(O)C(O)C1O)C1CCC2(C)C1C(O)CC1C3(C)CCC(O)C(C)(C)C3C(OC3OC(CO)C(O)C(O)C3OC3OC(C)C(O)C(O)C3O)CC12C (stereo not drawn) [Compound 8]
inhibition at 100 µM [1]: 4.01%

CC(=O)OC(C)(C)/C=C/C(=O)[C@](C)(O)[C@H]1[C@H](O)C[C@@]2(C)[C@@H]3CC=C4[C@@H](C[C@H](O)C(=O)C4(C)C)[C@]3(C)C(=O)C[C@]12C [Compound 9]
inhibition at 100 µM [1]: 5.77%

CC(C)=CCCC1(C)CCC2(C)C3CCC4(C)C(C)C(=O)CCC4C3(C)CCC2(C)C1 (stereo not drawn) [Compound 10]
inhibition at 100 µM [1]: 2.33%

CC(=O)OC1CC(O)C23COC(O)C1(C)C2CC(O)C1(C)C3C(=O)C(OC(C)=O)C2(C)C(c3ccoc3)CC3OC321 (stereo not drawn) [Compound 11]
inhibition at 100 µM [1]: 4.28%

CC(C)C1=CC(=O)C(C)(C2[C@H](O)C[C@@]3(C)[C@@H]4CC=C5[C@@H](CC[C@@H](OC6OCC(O)C(O)C6OC6OC(C)C(O)C(O)C6O)C5(C)C)[C@]4(C)C(=O)C[C@]23C)O1 (stereo partly drawn) [Compound 12]
inhibition at 100 µM [1]: 0.8%

CC(C)(C)C(=O)Oc1ccc(S(=O)(=O)Nc2ccccc2C(=O)NCC(=O)O)cc1 [ONO-5046, Sivelestat sodium hydrate, reference compound]
smoke-induced increase in BALF inflammatory cells and proinflammatory cytokine levels ([3]; intraperitoneal, positive control): prevented
